Assays:
[1] = molecular target: T1, human TLR3 (Homo sapiens, UniProt O15455); test: TLR ligand screening: NF-κB activation (SEAP reporter) in HEK293 cells expressing TLR3; format: cell-based; conditions: one concentration: NTR001 10 uM, Inosine 100 uM; FIG. 2
T1 construct: expressed in transfected cells; host or cells: HEK293
T1 sequence (O15455 24-904): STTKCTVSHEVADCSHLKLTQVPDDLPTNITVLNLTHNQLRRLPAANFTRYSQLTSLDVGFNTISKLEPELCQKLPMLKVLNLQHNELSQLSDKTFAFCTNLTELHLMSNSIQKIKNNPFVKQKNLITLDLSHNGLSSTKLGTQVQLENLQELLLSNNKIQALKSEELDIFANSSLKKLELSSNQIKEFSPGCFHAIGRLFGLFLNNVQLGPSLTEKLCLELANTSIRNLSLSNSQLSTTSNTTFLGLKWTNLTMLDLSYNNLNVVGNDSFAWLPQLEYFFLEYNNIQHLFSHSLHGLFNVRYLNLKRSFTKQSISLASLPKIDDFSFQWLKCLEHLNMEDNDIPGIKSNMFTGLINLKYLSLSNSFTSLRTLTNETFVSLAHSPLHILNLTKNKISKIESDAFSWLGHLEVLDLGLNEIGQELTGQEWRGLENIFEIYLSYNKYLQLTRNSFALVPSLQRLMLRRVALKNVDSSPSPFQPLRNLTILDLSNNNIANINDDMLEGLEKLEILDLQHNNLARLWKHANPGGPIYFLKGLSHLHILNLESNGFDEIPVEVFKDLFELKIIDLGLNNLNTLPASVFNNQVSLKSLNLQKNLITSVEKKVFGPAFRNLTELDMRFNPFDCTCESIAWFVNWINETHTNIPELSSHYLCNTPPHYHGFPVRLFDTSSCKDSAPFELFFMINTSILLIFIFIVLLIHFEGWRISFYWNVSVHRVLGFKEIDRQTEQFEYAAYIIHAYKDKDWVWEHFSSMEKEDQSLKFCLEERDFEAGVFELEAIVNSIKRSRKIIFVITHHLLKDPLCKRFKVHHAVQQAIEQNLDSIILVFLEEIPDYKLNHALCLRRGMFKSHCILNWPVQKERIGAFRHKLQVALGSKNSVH
Method: (§1) Method: TLR stimulation is tested by assessing NF-κB activation in HEK293 cells expressing a given TLR. The Secreted Embryonic Alkaline Phosphatase (SEAP) reporter is under the control of a promoter inducible by the transcription factor NF-κB. This reporter gene allows the monitoring of signaling through the TLR, based on the activation of NF-κB. The compounds are evaluated at one concentration and compared to control ligands. This step is performed in triplicate.

[2] = molecular target: T2, human TLR2 (Homo sapiens, UniProt O60603); test: TLR ligand screening: NF-κB activation (SEAP reporter) in HEK293 cells expressing TLR2; format: cell-based; conditions: one concentration: Guanosine 100 uM, NTR001 10 uM, Inosine 100 uM; FIG. 2
T2 construct: expressed in transfected cells; host or cells: HEK293
Method: as §1

[3] = molecular target: T3, human TLR4 (Homo sapiens, UniProt O00206+Q9Y6Y9); test: TLR ligand screening: NF-κB activation (SEAP reporter) in HEK293 cells expressing TLR4; format: cell-based; conditions: one concentration: Guanosine 100 uM, NTR001 10 uM, Inosine 100 uM; FIG. 2
T3 construct: expressed in transfected cells; host or cells: HEK293
Method: as §1

[4] = molecular target: T4, human TLR5 (Homo sapiens, UniProt O60602); test: TLR ligand screening: NF-κB activation (SEAP reporter) in HEK293 cells expressing TLR5; format: cell-based; conditions: one concentration: NTR001 10 uM, Inosine 100 uM; FIG. 2
T4 construct: expressed in transfected cells; host or cells: HEK293
Method: as §1

[5] = molecular target: T5, human TLR8 (Homo sapiens, UniProt Q9NR97); test: TLR ligand screening: NF-κB activation (SEAP reporter) in HEK293 cells expressing TLR8; format: cell-based; conditions: one concentration: NTR001 10 uM, Inosine 100 uM; FIG. 2
T5 construct: expressed in transfected cells; host or cells: HEK293
T5 sequence (Q9NR97 27-1041): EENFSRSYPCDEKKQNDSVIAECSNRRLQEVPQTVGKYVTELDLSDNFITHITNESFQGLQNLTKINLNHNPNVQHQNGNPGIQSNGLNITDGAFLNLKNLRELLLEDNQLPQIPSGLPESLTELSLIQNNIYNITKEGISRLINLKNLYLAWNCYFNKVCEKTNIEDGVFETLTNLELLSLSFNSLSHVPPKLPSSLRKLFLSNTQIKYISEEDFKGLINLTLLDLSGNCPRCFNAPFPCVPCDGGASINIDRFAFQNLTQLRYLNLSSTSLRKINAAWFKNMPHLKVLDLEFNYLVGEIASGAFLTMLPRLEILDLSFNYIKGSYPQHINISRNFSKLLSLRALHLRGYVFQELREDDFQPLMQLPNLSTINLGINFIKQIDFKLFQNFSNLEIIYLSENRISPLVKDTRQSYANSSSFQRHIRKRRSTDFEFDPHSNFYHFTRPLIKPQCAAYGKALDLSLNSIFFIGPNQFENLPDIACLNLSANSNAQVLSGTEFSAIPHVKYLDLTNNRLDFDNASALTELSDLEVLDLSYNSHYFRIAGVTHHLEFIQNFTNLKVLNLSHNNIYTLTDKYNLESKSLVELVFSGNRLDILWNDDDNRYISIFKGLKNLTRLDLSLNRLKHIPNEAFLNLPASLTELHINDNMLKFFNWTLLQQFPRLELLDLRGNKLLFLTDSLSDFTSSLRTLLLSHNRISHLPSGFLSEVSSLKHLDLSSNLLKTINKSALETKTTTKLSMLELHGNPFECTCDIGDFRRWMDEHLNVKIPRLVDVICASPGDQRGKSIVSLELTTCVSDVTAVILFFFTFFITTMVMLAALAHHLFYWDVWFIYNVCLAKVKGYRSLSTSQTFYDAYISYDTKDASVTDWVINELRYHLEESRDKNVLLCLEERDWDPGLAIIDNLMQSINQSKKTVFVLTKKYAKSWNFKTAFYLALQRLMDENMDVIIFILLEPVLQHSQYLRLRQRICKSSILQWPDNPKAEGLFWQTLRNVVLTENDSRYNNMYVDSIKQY
Method: as §1

[6] = system: immune response to tetanus toxoid vaccine; test: PNPi as adjuvant in tetanus toxoid vaccine efficacy study (mouse); format: in vivo; conditions: mice, p.o., ELISA
[7] = system: L. monocytogenes (ATCC Strain35152, hemolytic substrain); test: Mouse model of L. monocytogenes infection; conditions: Balb/c mice infected i.v. with 1×10^6 CFU; 30 mg/kg PO or IP, 2 mg/kg drinking water; FIGS. 7 and 9
[8] = system: B16 tumors; test: Syngeneic mouse melanoma model; format: in vivo, C57BL/6 mice
Method: Method: Cancer cells were injected subcutaneously in right flank of each mouse, 1×10^4 cells in 0.1 ml PBS with 20% Matrigel. Treatment with the NTR001 was initiated on day 6 after injection of tumor cells. Tumor volume and survival were recorded every 3-4 days.

T3 sequence (O00206 24-839): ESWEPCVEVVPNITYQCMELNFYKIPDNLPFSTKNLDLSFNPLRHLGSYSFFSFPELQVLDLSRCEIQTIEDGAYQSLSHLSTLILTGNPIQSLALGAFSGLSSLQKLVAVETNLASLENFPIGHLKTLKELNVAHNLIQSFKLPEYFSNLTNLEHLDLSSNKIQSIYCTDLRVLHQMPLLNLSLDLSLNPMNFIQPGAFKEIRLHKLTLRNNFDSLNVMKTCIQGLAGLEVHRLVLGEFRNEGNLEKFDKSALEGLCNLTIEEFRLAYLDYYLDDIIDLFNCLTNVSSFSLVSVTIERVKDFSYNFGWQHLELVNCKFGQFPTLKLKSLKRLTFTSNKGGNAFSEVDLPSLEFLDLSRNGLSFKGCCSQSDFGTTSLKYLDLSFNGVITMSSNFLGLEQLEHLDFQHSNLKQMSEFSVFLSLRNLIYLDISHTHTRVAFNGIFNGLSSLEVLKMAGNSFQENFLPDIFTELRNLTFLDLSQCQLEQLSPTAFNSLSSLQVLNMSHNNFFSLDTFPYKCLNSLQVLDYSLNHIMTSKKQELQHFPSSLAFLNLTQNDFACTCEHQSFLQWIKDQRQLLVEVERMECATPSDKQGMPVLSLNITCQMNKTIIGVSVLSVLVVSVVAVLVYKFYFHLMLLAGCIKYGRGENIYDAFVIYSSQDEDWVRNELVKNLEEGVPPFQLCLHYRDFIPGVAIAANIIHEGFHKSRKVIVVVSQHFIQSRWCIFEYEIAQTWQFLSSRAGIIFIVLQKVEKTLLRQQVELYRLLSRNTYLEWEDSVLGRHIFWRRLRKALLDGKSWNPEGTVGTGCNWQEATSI
T3 sequence (Q9Y6Y9 17-160 limits assumed): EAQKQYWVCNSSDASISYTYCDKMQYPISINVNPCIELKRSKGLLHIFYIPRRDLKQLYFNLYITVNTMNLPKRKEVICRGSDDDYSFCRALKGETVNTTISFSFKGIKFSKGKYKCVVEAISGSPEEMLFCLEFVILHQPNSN
T4 sequence (O60602 21-858): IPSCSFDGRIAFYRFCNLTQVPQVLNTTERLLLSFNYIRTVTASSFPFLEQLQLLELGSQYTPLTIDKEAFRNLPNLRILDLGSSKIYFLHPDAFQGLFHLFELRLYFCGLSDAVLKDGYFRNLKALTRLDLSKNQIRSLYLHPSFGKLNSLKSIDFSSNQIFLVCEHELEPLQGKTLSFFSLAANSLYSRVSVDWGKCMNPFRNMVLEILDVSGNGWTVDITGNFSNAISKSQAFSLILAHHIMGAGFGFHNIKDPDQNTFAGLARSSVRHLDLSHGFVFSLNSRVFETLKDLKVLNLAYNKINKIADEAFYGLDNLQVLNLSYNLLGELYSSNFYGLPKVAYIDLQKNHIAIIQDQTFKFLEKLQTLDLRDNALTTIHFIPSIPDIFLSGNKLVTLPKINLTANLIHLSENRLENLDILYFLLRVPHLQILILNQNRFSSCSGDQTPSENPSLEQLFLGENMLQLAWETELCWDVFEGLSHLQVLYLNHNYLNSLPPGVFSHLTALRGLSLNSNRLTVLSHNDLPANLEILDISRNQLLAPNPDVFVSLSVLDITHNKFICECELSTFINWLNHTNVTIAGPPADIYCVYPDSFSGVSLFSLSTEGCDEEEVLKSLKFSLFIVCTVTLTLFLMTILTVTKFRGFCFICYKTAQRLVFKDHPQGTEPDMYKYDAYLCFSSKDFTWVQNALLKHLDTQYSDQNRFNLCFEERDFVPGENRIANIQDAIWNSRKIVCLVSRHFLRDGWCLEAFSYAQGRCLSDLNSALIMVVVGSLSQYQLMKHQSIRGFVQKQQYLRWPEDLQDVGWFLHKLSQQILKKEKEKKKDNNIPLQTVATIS
T2 sequence (O60603 21-784): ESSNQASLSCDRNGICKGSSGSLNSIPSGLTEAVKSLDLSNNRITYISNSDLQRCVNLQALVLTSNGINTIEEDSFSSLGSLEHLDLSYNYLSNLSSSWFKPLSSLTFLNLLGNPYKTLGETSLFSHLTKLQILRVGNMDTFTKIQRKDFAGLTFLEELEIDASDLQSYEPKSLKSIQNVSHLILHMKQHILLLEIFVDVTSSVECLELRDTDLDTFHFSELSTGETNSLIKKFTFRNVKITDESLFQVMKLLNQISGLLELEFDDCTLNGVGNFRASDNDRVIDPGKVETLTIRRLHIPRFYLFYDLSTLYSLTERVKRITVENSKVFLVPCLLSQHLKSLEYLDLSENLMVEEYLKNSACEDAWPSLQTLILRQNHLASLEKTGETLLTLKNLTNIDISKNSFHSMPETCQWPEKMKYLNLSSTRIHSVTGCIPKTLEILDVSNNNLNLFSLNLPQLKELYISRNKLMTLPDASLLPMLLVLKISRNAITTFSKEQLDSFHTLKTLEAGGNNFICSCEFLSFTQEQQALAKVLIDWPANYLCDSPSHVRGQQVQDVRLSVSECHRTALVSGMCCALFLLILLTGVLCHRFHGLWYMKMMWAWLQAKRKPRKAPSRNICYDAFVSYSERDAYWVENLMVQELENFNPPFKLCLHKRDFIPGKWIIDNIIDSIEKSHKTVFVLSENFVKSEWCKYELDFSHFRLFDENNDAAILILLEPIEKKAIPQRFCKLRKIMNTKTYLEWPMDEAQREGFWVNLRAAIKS

| Structure (SMILES) | stimulatory effect on human TLR3 [1] | stimulatory effect on human TLR2 [2] | stimulatory effect on human TLR4 [3] | stimulatory effect on human TLR5 [4] | stimulatory effect on human TLR8 [5] | serum tetanus toxoid antibody titers compared to the vehicle treated group ([6]; 30 mg/kg (6 days of treatment) and 60 mg/kg (3 days of treatment), day 38, FIG. 3) | serum interferon-g compared to the vehicle treated group ([6]; high dose group 60 mg/kg, day 30, FIG. 4) | weight loss [7] | tumor volume ([8]; B16 tumors in C57BL/6 mice, treatment from day 6, FIG. 5) | survival ([8]; NTR001 as single agent (30 mg/kg PO week on/off; 5 mg/kg drinking water 28 days), FIG. 6) |
| --- | --- | --- | --- | --- | --- | --- | --- | --- | --- | --- |
| OC[C@H]1O[C@@H](n2cnc3c(O)ncnc32)[C@H](O)[C@@H]1O [Inosine] | do not exhibit a stimulatory effect | do not exhibit a stimulatory effect | do not exhibit a stimulatory effect | do not exhibit a stimulatory effect | do not exhibit a stimulatory effect |  |  |  |  |  |
| O=c1[nH]cnc2c([C@@H]3N[C@H](CO)[C@@H](O)[C@H]3O)c[nH]c12 [NTR001, 7-[(2S,3S,4R,5R)-3,4-dihydroxy-5-(hydroxymethyl)-2-pyrrolidinyl]-1,5-dihydro-4H-pyrrolo [3,2-d]pyrimidin-4-one] | do not exhibit a stimulatory effect | do not exhibit a stimulatory effect | do not exhibit a stimulatory effect | do not exhibit a stimulatory effect | do not exhibit a stimulatory effect | significantly elevated | elevated | significant decrease in weight loss | significant decrease | 0-20% |
